Values quoted from earlier work in patent US7973075B2, “Kainate receptor-selective epimeric analogs of dysiherbaine” (priority 2007, dated 2011).

Tests used:
[1] = test system: mice; settings: i.c.v. injection, mice; Shoji et al., 2006; cited from earlier work
[2] = biological target: T1, KA2 (Rattus norvegicus, UniProt Q63273); settings: Tables 1-2; comparison values of neoDH and MSVIII-19 (Sanders et al., 2005); cited from earlier work
T1 construct: expressed in transfected cells; host or cells: HEK-293-T/17
T1 sequence (Q63273 15-979): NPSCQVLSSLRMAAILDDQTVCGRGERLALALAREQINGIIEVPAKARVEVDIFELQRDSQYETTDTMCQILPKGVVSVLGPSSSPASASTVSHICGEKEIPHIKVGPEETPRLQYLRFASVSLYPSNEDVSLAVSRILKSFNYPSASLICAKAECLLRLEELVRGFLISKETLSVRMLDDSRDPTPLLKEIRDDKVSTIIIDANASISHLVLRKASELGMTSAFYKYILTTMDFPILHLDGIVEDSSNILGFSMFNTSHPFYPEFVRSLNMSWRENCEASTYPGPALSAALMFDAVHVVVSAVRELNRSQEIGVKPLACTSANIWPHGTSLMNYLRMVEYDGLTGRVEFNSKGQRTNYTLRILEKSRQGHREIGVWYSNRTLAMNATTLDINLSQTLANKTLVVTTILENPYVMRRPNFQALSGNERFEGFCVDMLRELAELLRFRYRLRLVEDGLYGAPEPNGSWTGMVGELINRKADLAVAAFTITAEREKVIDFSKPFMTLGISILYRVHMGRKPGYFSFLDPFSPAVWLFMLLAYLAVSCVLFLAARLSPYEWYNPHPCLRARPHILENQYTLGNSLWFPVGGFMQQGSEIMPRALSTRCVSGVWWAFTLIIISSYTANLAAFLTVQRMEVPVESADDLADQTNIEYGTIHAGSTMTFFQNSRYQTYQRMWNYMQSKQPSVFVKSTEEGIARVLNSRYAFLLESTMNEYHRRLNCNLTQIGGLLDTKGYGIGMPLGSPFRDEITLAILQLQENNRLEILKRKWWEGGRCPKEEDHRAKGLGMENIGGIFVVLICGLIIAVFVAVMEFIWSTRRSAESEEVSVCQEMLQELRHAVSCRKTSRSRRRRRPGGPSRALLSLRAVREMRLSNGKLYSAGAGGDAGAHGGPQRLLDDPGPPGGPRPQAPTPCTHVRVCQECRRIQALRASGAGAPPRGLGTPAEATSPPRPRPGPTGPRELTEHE

[3] = biological target: T2, GluR6 (Rattus norvegicus, UniProt P42260); settings: Tables 1-2; comparison value of neoDH (Sanders et al., 2005); read-out: GluR6 binding affinity (displacement of [3H]kainate); cited from earlier work
T2 construct: expressed in transfected cells; HEK 293 (patch clamp)
T2 sequence (P42260 32-908): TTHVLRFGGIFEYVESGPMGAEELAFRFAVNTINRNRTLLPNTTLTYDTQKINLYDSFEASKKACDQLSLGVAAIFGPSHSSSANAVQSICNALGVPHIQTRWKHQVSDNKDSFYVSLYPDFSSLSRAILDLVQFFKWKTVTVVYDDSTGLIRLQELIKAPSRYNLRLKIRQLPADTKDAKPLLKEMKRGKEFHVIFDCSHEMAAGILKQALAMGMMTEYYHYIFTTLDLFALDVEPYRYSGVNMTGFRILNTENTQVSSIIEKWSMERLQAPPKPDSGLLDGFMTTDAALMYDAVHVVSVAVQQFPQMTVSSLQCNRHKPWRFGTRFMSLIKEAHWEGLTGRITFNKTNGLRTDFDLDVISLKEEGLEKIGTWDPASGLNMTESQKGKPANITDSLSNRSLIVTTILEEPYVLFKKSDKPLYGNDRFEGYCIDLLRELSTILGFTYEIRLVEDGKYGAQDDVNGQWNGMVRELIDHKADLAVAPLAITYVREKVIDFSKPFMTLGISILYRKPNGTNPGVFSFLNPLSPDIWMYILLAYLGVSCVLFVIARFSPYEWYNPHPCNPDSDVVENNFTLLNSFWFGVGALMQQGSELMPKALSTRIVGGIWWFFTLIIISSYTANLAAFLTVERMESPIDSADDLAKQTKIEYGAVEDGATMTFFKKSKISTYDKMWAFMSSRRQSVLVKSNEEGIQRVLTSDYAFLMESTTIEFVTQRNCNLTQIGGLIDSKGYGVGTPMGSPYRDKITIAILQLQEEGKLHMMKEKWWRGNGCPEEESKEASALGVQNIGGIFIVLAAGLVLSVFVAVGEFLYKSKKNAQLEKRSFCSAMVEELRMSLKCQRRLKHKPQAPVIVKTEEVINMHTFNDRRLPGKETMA

[4] = biological target: T3, GluR5-2a (Rattus norvegicus, UniProt P22756, DEL402-416); settings: Sanders et al., 2005; cited from earlier work
T3 construct: expressed in transfected cells; host or cells: HEK-293-T/17
T3 sequence (P22756 with tags, fused parts or gaps isoform P22756-2 limits assumed, stated change not applied): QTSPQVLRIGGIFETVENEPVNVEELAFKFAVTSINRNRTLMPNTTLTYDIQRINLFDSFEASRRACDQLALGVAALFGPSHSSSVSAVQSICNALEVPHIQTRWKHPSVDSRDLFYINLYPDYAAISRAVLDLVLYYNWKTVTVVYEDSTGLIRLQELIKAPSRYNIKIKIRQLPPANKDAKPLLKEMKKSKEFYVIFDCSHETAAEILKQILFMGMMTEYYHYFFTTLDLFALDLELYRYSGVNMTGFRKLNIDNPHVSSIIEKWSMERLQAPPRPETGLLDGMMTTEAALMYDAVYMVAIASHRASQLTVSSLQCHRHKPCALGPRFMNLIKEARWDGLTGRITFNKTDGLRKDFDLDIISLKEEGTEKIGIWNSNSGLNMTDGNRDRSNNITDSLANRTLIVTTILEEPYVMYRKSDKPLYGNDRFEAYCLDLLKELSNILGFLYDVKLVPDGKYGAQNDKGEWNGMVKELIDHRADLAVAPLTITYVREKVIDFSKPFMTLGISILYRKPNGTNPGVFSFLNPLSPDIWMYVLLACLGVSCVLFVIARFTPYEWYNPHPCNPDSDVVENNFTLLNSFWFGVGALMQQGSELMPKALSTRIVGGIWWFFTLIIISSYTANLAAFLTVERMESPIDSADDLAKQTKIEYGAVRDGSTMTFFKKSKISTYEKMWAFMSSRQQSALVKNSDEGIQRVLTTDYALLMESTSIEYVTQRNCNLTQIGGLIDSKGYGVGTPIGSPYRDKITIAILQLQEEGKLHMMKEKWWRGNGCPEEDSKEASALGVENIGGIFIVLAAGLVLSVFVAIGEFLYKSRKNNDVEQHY

[5] = biological target: T1, KA2; settings: Sanders et al., 2005; cited from earlier work
[6] = biological target: T4, GluR5 (Rattus norvegicus, UniProt P22756); settings: Tables 1-2; comparison values of neoDH and MSVIII-19 (Sanders et al., 2005); read-out: GluR5 binding affinity (displacement of [3H]kainate); cited from earlier work
T4 construct: expressed in transfected cells; HEK 293 (patch clamp)
T4 sequence (P22756 with tags, fused parts or gaps isoform P22756-2): as the sequence (P22756 with tags, fused parts or gaps isoform P22756-2 limits assumed, stated change not applied) above

Structure (SMILES)	ED50 seizure activity [1]	KA2 binding affinity (displacement of [3H]kainate) [2]	Ki [3]	Ki [4]	Ki KA2 [5]	Ki [6]
CN[C@H]1[C@H]2O[C@@](C[C@H](N)C(=O)O)(C(=O)O)C[C@H]2OC[C@H]1O [DH, Dysiherbaine]	13 pmol/mouse					
N[C@@H](C[C@]1(C(=O)O)C[C@H]2OC[C@@H](O)[C@@H](O)[C@H]2O1)C(=O)O [neodysiherbaine, Neodysiherbaine]	16 pmol/mouse	0.6 µM	33 nM	7.7 nM	600 nM	7.7 nM
